Experimental data reported in patent US7186559B2, “Apparatus and method for electroporation of biological samples” (Maxcyte, Inc., priority 2001, dated 2007).

Key:
CLL-B cells = assay: Caspase inhibitor effect on human CD40L transfection of CLL-B cells; type: cell-based; conditions: 100 μm inhibitor in culture medium, 24 hour post transfection
Description: Caspase inhibitor effect on human CD40L transfection of CLL-B cells was investigated. CLL-B cells (1.4×10^8 cells/mL) were electroporated by four 400 μs pulses at indicated electric fields in the present of DNA plasmid (200 μg/mL) coding for hCD40L. Following a 20 minute incubation at 37° C., cells were cultured in medium either with (+I) or without (−I) caspase inhibitor (Boc-Asp-FMK, 100 μm). hCD40L, expression was analyzed 24 hour post transfection by flow cytometry with antibodies against hCD40L conjugate-labeled with Cychrome.

Human platelets [1] = assay: Loading of platelets with fluorescent marker by flow electroporation; type: cell-based
Description: Efficacy is expressed as the percentage of cells that took up fluorescent markers (calcein or albumin+fluorescein). “Activity” was determined by measuring biologic functions, such as secretion or aggregation (for MaxCyte's application, any detectable level will probably suffice). “Survival” is the circulating half-life in an animal model. FIGS. 23A and 23B show scatter plots from a flow cytometer. Control (FIG. 23A) was incubated in a dilute solution of the fluorescent dye, calcein, for approximately 1 hour. The test sample (FIG. 23B) was suspended in the same dye solution, but was run through the electroporation device. Similar results were obtained using fluoresceinated albumin.

Human platelets [2] = assay: Activity (secretion or aggregation) of loaded platelets; type: cell-based
Description: Efficacy is expressed as the percentage of cells that took up fluorescent markers (calcein or albumin+fluorescein). “Activity” was determined by measuring biologic functions, such as secretion or aggregation (for MaxCyte's application, any detectable level will probably suffice). “Survival” is the circulating half-life in an animal model.

platelets = assay: Collagen stimulation of calcein-loaded platelets; type: cell-based; conditions: platelets electroporated with calcein, collagen stimulus
Description: Platelets were treated in accordance with the present invention in the presence of a marker dye, calcein, then stimulated with increasing doses of collagen, a physiologic stimulant for platelets. […] FIGS. 24A and 24B show platelets that had been washed but otherwise not treated (Untreated[N]}), platelets that were incubated with the fluorescent marker calcein (calcein control) and platelets electroporated with calcein (electroporated) were subsequently stimulated with the physiologic stimulus, collagen.

[3] = Organ distribution of calcein-loaded platelets; type: in vivo, rabbit; conditions: rabbits, organs harvested within 1 half-life
Description: In another series of studies, platelets loaded with calcein were infused into the rabbits and major organs harvested within 1 half-life.

hemoglobin = hemoglobin (Homo sapiens, UniProt P68871); conditions: cited from earlier work
resting Lymphocytes = assay: Electroporation (transfection) of resting lymphocytes; type: cell-based, human; conditions: Static
Description: Primary lymphocytes were suspended in B&K buffer (125 mM KCl, 15 mM NaCl, 1.2 mM MgCl2, 3 mM glucose, 25 mM Hepes, pH 7.4) cell concentration was set from 1×10^7 cells/mL to 6×10^8 cells/mL together with DNA plasmid from 50 μg/mL to 1 mg/mL. DNA concentration was 50 ug/mL–1000 ug/mL. Electroporation was performed at 2.3 kV/cm, 400 μs, 4 pulses for small volume experiments (15 μl) or 2.2 kV/cm, 1.6 ms, 1 pulse for large volume experiments (0.5 ml–2 ml) was performed under static conditions at room temperature. […] Cells were cultured in culture medium for various periods (up to 72 hours) and the transfection efficiency was analyzed.
Seven transgenes (Ds-Red, eGFP, βGal, hEndostatin, HEPO, hIFNα, hIL-2) were tested in these experiments. […] When pCMV-Ds-Red or pCMV-EGFP was used, the percentage of the fluorescent cells was counted, by FACS or by manual counting under phase contrast and fluorescence microscope, as the transfection efficiency. […] When pCMV-Endostatin was used, the Endostatin concentration in the supernatant was analyzed by ELISA kit from Cytimmune Sciences, Inc. (College Park, Md.). For pCMV-EPO electroporation, the erythropoietin concentration in the supernatant was analyzed by R&D ELISA kit (Minneapolis, Minn.). […]

Sequence of hemoglobin (P68871 2-147 limits assumed): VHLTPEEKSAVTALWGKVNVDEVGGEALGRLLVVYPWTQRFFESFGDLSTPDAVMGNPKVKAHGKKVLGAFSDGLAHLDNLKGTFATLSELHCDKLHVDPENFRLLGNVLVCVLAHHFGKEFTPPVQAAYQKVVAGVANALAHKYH
Sequence of hemoglobin (P69905 2-142 partner limits assumed): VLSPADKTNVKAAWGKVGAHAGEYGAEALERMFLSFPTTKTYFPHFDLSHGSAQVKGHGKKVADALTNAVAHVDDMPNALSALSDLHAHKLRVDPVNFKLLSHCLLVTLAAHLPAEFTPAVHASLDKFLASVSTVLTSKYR

Molecule: CC(C)(C)OC(=O)NC(CC(=O)O)C(=O)CF (stereo not drawn) [Boc-Asp-FMK]
- hCD40L expression level (CLL-B cells): improves
- hCD40L expression: percentage of expressed cells (CLL-B cells): improves

Molecule: O=C(O)CN(CC(=O)O)Cc1cc2c(cc1O)Oc1cc(O)c(CN(CC(=O)O)CC(=O)O)cc1C21OC(=O)c2ccccc21 [CALCEIN, calcein]
- Efficacy (% of cells with marker) (Human platelets [1]): 80+ % of cells with marker
- Activity (% of control) (Human platelets [2]): 40–60 % of control
- collagen-stimulated Calcein release (platelets): did not release the dye
- organ distribution of loaded platelets [3]: found in multiple organs

Molecule: O=P(O)(O)O[C@H]1[C@H](OP(=O)(O)O)[C@@H](OP(=O)(O)O)[C@H](OP(=O)(O)O)[C@@H](OP(=O)(O)O)[C@H]1OP(=O)(O)O [IHP, inositol hexaphosphate]
- affinity to hemoglobin relative to DPG (hemoglobin; higher than DPG): 1000 fold
- P50 of hemoglobin (hemoglobin; pH 7.4, 37° C.): ≤ 96.4 mm Hg

Molecule: βGal
- Efficiency (% of + cells) (resting Lymphocytes): 15%
- Viability (resting Lymphocytes): 40%
